In ChEMBL document CHEMBL1201862, “PubChem BioAssay data set” (2004):
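96-well plates; 48 h exposure; 5 concentrations. Endpoints by linear interpolation between flanking doses. Not reached: highest tested concentration assigned. GI50 marks 50% less growth.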 The source made the active and inactive calls. Rule as the data show it: active = GI50 up to about 1.1 µM and inactive = higher.

Tests used:
Test in all cases: DTP human tumour cell line panel, 48 h
RXF 393 = system: RXF 393
NCI-H226 = system: NCI-H226
Malme-3M = system: Malme-3M
SK-MEL-5 = system: SK-MEL-5
SK-MEL-28 = system: SK-MEL-28
OVCAR-8 = system: OVCAR-8
ACHN = system: ACHN
OVCAR-5 = system: OVCAR-5
MOLT-4 = system: MOLT-4
SW-620 = system: SW-620
K562 = system: K562
COLO 205 = system: COLO 205
HCT-15 = system: HCT-15
SF-539 = system: SF-539
786-0 = system: 786-0
HCC 2998 = system: HCC 2998
EKVX = system: EKVX
NCI-H23 = system: NCI-H23

SMILES	GI50 (RXF 393)	GI50 (NCI-H226)	GI50 (Malme-3M)	GI50 (SK-MEL-5)	GI50 (SK-MEL-28)	GI50 (OVCAR-8)	GI50 (ACHN)	GI50 (OVCAR-5)	GI50 (MOLT-4)	GI50 (SW-620)	GI50 (K562)	GI50 (COLO 205)	GI50 (HCT-15) [µM]	GI50 (SF-539)	GI50 (786-0)	GI50 (HCC 2998)	GI50 (EKVX)	GI50 (NCI-H23)
COc1ccc2[nH]c3c(C)c4c(c(C)c3c2c1)CN(C)CC4	19.3 µM (inactive)	15.8 µM (inactive)	19.8 µM (inactive)	17.5 µM (inactive)	14.2 µM (inactive)	11.9 µM (inactive)	18.8 µM (inactive)	23.7 µM (inactive)	18.5 µM (inactive)	4.21 µM (inactive)	4.59 µM (inactive)	17.4 µM (inactive)	16.1	16 µM (inactive)	14.6 µM (inactive)	16.9 µM (inactive)	–	–
CC#CC#C/C=C1\C=CC2(OC=CC2O)O1 (stereo not given)	8.55 µM (inactive)	> 15.8 µM (inactive)	10.4 µM (inactive)	> 12.9 µM (inactive)	13.3 µM (inactive)	14.3 µM (inactive)	> 23.3 µM (inactive)	4.23 µM (inactive)	10.5 µM (inactive)	8.28 µM (inactive)	11.6 µM (inactive)	3.28 µM (inactive)	7.4	> 14.9 µM (inactive)	> 16 µM (inactive)	> 16.2 µM (inactive)	> 9.86 µM (inactive)	> 20.3 µM (inactive)
C(=C1/CCCCC([n+]2ccccc2)=N1)/c1ccccc1	> 100 µM (inactive)	> 100 µM (inactive)	> 100 µM (inactive)	–	> 100 µM (inactive)	> 100 µM (inactive)	> 100 µM (inactive)	> 100 µM (inactive)	> 100 µM (inactive)	> 100 µM (inactive)	> 100 µM (inactive)	> 100 µM (inactive)	> 100	> 100 µM (inactive)	> 100 µM (inactive)	> 100 µM (inactive)	> 100 µM (inactive)	> 100 µM (inactive)
O=C1OC(c2ccccc2)=N/C1=C/NC(CO)C(=O)O (stereo not given)	> 100 µM (inactive)	> 100 µM (inactive)	> 100 µM (inactive)	> 100 µM (inactive)	> 100 µM (inactive)	> 100 µM (inactive)	> 100 µM (inactive)	> 100 µM (inactive)	–	> 100 µM (inactive)	> 100 µM (inactive)	> 100 µM (inactive)	> 100	> 100 µM (inactive)	> 100 µM (inactive)	> 100 µM (inactive)	> 100 µM (inactive)	> 100 µM (inactive)
O=[N+]([O-])c1ccc(C[P+](c2ccccc2)(c2ccccc2)c2ccccc2)cc1	11.9 µM (inactive)	> 100 µM (inactive)	37.8 µM (inactive)	57 µM (inactive)	35.1 µM (inactive)	73.1 µM (inactive)	> 100 µM (inactive)	> 100 µM (inactive)	> 100 µM (inactive)	88.3 µM (inactive)	70.8 µM (inactive)	25.4 µM (inactive)	81.5	67.8 µM (inactive)	> 100 µM (inactive)	36.1 µM (inactive)	> 100 µM (inactive)	83.8 µM (inactive)
Clc1ccc2nc(-c3ccccc3)nc(Cl)c2c1	26.1 µM (inactive)	34 µM (inactive)	24.2 µM (inactive)	> 100 µM (inactive)	80.5 µM (inactive)	37 µM (inactive)	24.9 µM (inactive)	> 100 µM (inactive)	> 100 µM (inactive)	> 100 µM (inactive)	> 100 µM (inactive)	> 100 µM (inactive)	> 100	46.6 µM (inactive)	33 µM (inactive)	40.2 µM (inactive)	29.2 µM (inactive)	69.2 µM (inactive)
CC(=O)O/N=C(/C)c1ccccc1O	> 100 µM (inactive)	> 100 µM (inactive)	> 100 µM (inactive)	–	> 100 µM (inactive)	> 100 µM (inactive)	> 100 µM (inactive)	> 100 µM (inactive)	> 100 µM (inactive)	> 100 µM (inactive)	> 100 µM (inactive)	> 100 µM (inactive)	–	> 100 µM (inactive)	> 100 µM (inactive)	> 100 µM (inactive)	> 100 µM (inactive)	> 100 µM (inactive)
